Some test systems named below: HOP-62; SR; 786-0; ACHN; SF-539; OVCAR-4; EKVX; U-251; SK-MEL-28; NCI-H23; SK-OV-3; UACC-62; Malme-3M; LOX IMVI; K562; HCC 2998; OVCAR-8.
Common to all, as to test: growth of human tumour cells (NCI), 48 h

The values that follow come from ChEMBL document CHEMBL1201862, “PubChem BioAssay data set” (2004).

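Results reflect a 48-hour exposure of cells in 96-well plates to compound at five concentrations. The concentration for 50% growth inhibition is given as GI50.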 The source made the active and inactive calls. Rule as the data show it: active = GI50 up to about 1.1 µM and inactive = higher.

Take `CSC(=S)N/N=C/c1nccc2ccccc12`: the GI50 in the experiment on HOP-62 was 2.25 µM (inactive); in the experiment with SR, 0.291 µM (active); in the experiment on 786-0 it was 2.39 µM (inactive); in the experiment with ACHN it was 1.23 µM (inactive); with SF-539, 1.08 µM (active); with OVCAR-4, 1.16 µM (inactive). Further, the GI50 in the experiment with EKVX was 2.52 µM (inactive); in the experiment with U-251, 0.875 µM (active); in the experiment on SK-MEL-28 it was 2.19 µM (inactive); in the experiment on NCI-H23 it was 1.42 µM (inactive); in the experiment with SK-OV-3 it was 6.79 µM (inactive); with UACC-62, 1.29 µM (inactive). Further, the GI50 is 1.34 µM (inactive) in the experiment with Malme-3M; 1.49 µM (inactive) in the experiment with LOX IMVI; 0.392 µM (active) with K562; 1.3 µM (inactive) in the experiment with HCC 2998; 0.454 µM (active) in the experiment on OVCAR-8.
As for `CC1(C)OC(=O)C(=C2CC(c3ccccc3)c3ccccc32)C(=O)O1` (configuration not stated), the GI50 in the experiment with HOP-62, in the experiment on SR, with 786-0, in the experiment with ACHN, in the experiment on SF-539 and in the experiment on OVCAR-4 was > 100 µM (inactive) throughout. Moreover, the GI50 with EKVX, in the experiment with U-251, in the experiment with SK-MEL-28, in the experiment on NCI-H23, in the experiment on SK-OV-3 and in the experiment on Malme-3M was > 100 µM (inactive) in each case. Moreover, the GI50 with LOX IMVI, with K562, in the experiment with HCC 2998 and in the experiment on OVCAR-8 was > 100 µM (inactive) in each case.
For `Cc1ccccc1NC(=O)C(=O)Cc1nc2ccccc2s1`, the GI50 with HOP-62, in the experiment with SR, in the experiment with 786-0, in the experiment with ACHN, in the experiment with SF-539 and in the experiment on OVCAR-4 was > 100 µM (inactive) in each case. In addition, the GI50 in the experiment with U-251, in the experiment on SK-MEL-28, in the experiment on NCI-H23, in the experiment with SK-OV-3, in the experiment on Malme-3M and in the experiment on LOX IMVI was > 100 µM (inactive) in each case. Moreover, the GI50 with K562, in the experiment on HCC 2998 and with OVCAR-8 was > 100 µM (inactive) in each case.
For the molecule `COc1cc2cc(OC)c3cc4c(cc3c2c(OC)c1OC)OCO4`, the GI50 in the experiment on HOP-62 was 42.6 µM (inactive); in the experiment with SR, 18.5 µM (inactive); in the experiment on 786-0 it was 27.9 µM (inactive); with ACHN, 52.5 µM (inactive); in the experiment with SF-539 it was 31.6 µM (inactive); with OVCAR-4, 39.4 µM (inactive). Moreover, the GI50 with EKVX was 50.6 µM (inactive); in the experiment with U-251 it was 20.8 µM (inactive); in the experiment with SK-MEL-28 it was > 39.6 µM (inactive); with NCI-H23, 39.8 µM (inactive); with SK-OV-3, > 64.9 µM (inactive); with UACC-62, 19.3 µM (inactive). Besides, the GI50 in the experiment with Malme-3M was 52.4 µM (inactive); with LOX IMVI it was 15.5 µM (inactive); with K562, 9.46 µM (inactive); in the experiment on HCC 2998, 11 µM (inactive); in the experiment on OVCAR-8, > 59.4 µM (inactive).
For the molecule `CCCC(O)[C@@H](O)c1ccc2c(c1O)C(=O)c1c(OC)cccc1C2=O` (some centres not stated), the GI50 was 55.2 µM (inactive) in the experiment with HOP-62; 26.4 µM (inactive) in the experiment on SR; 37.5 µM (inactive) with 786-0; 34.4 µM (inactive) with ACHN; 24.2 µM (inactive) with SF-539; 25 µM (inactive) in the experiment on OVCAR-4. For the same molecule, the GI50 in the experiment on EKVX is 55.1 µM (inactive); in the experiment on U-251, 27.2 µM (inactive); with SK-MEL-28, 66.4 µM (inactive); in the experiment on NCI-H23, 36.6 µM (inactive); in the experiment with SK-OV-3 it was 24.1 µM (inactive); with UACC-62, 25.9 µM (inactive). The GI50 in the experiment with Malme-3M is 40.7 µM (inactive); in the experiment with LOX IMVI, 27.4 µM (inactive); in the experiment with K562, 34.3 µM (inactive); in the experiment with HCC 2998 it was 19.4 µM (inactive); with OVCAR-8 it was 30.1 µM (inactive).
